Where a SMILES comes first, the peptide text is derived from it. The star is where a group is joined. Cbz = O=C(OCc1ccccc1)*; CH2F = FC*

The target of assay [1] is T1, m-calpain (Homo sapiens, UniProt P17655).
T1 sequence (P17655 1-700): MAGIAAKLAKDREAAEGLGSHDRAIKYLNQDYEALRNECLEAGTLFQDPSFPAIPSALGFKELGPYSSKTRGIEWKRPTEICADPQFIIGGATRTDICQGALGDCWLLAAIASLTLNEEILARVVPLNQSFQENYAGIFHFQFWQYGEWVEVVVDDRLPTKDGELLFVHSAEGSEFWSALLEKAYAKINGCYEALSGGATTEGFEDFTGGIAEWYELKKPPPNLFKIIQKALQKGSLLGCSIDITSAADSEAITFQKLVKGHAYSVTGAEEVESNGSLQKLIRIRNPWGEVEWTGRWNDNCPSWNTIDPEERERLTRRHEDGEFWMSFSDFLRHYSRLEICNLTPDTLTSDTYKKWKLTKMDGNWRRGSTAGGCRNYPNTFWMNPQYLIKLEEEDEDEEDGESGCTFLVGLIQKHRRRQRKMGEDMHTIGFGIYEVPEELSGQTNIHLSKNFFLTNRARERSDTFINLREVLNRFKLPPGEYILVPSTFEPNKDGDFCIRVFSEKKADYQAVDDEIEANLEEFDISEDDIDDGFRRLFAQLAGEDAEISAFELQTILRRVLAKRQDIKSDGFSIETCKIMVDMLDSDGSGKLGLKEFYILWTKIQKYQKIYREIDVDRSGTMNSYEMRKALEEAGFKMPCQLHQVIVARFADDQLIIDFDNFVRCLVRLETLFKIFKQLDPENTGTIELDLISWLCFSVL
T1 sequence (P04632 1-268 partner): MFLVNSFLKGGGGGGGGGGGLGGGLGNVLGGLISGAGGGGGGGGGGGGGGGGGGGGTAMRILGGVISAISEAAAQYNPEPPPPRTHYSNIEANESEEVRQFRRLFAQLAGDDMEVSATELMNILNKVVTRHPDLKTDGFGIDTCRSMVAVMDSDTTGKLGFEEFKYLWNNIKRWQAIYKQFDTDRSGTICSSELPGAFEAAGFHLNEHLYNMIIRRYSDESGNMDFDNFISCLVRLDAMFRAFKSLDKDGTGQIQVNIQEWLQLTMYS
The experiment in a line: irreversible inhibition of m-calpain, k2 rate constant. It counts as biochemical. The conditions noted are these: m-calpain / cathespin L, 28,900/680,000. The text has this: In some aspects, the m-calpain selective inhibitor can be an irreversible inhibitor of m-calpain. The inhibition is made […] by the nucleophilic attack of the active cysteine in m-calpain to the electrophilic moeity of the m-calpain selective inhibitor to form a covalent bond (Moldoveanu, T.; Campbell, R. L.; Cuerrier, D.; Davies, P. L. J. Mol. Biol., 343, 1313-1326, 2004; Carragher, N. O., Curr. Pharm. Des., 12, 615-638, 2006). […] However, ZZ-LLY-CH2F can inhibit the off-target protein cathespin L with a rate constant k2 of 680,000 M^−1s^−1 (Li, Q.; Hanzlik, R. P.; Weaver, R. F.; Schoenbrunn, E., Biochemistry, 45:701-708, 2006). Thus, the ratio of inhibition rates k2 of the on-target m-calpain to an off-target protein can be around 28,900/680,000, or about 0.041. The ratio of inhibition rates k2 of the on-target m-calpain to an off-target protein can be greater than about 0.5, or greater than 0.1, or greater than 0.05, or greater than 0.01.

In assay [2] the test system is IκB / NFκB in HT-29 cells. The experiment in a line: IκB and nuclear NFκB western blot, HT-29. It counts as cell-based, human. To be noted: HT-29, vs DMSO. The procedure: Bone marrow derived macrophages (BMDM) were prepared as previously described by methods known to those skilled in the art. On day 5 of culture, 2×10^6 BMDM were seeded in 6-well plates and the following day were primed for 18 h with TNFα (20 ng/mL), followed by 1 h stimulation with E. faecalis (1 μg/mL; ATCC). Stimulation with E. faecalis was conducted in the presence of the zLLY-CH2F calpain-2 inhibitor (20 μg/mL) or DMSO as a control. Media was removed from treated BMDM, centrifuged at 300×g for 5 min and supernatent analyzed using the Cytometric Bead Array Mouse Inflammation Kit (BD Biosciences, San Jose, Calif.). Cytokine data were analyzed using Flowjo software (Ashland, Oreg.) and GraphPad Prism version 4.0 (GraphPad, La Jolla, Calif.). Cell pellets were lysed and analyzed for IκB and NFκB by Western blot as previously described (Miyazaki, T. et al. Journal of Atherosclerosis and Thrombosis 20, 228-237, 2013). […] Each day 4 wells were quantified using Celltiter MTS reagent (Promega) and the resulting signal was used to generate a proliferation curve. Calpain activity was measured using a Calpain activity assay kit (BioVision, Inc., Milpitas, Calif.) as previously described. Colons were harvested on day 4 and calpain activity measured. […]

In the case of `CC(C)C[C@H](NC(=O)OCc1ccccc1)C(=O)N[C@@H](CC(C)C)C(=O)N[C@@H](Cc1ccc(O)cc1)C(=O)CF` [zLLY-CH2F, Z-LLY-CH2F] (Cbz-Leu-Leu-Tyr-CH2F), the “ratio of inhibition rates k2 of on-target m-calpain to off-target protein” value in assay [1] is on record as “about 0.041”. In assay [2], the IκB degradation result was “reduced” and the NFκB nuclear localization result is given as “reduced”.

(Values after patent US20160279187A1, “CALPAIN INHIBITORS FOR IBD AND COLORECTAL CANCER TREATMENT” (UNIVERSITY OF HAWAII, priority 2013, published 2016).)
